Results taken from patent US11118208B2, “Methods for modulating protein galactosylation profiles of recombinant proteins using peracetyl galactose” (ARES TRADING S.A., priority 2016, dated 2021).

Experiments:
mAb1 cells (cell line 1) = experiment: Fed-batch culture of mAb1 cells, supplementation as feed after the start of the culture: cell density, viability, titer; format: cell-based, Chinese hamster
Procedure: (§1) For example 4: Additional experiments were run in similar conditions, except with regard to supplementation with α- or β-2-F-peracetyl galactose. In such a case, a serum-free chemically defined culture medium was used, supplemented with α- or β-2-F-peracetyl galactose as mentioned thereafter in Table 2.
(§2) The cultures were performed in deepwell plates (DWP) with a working volume of 450 μL. They were incubated at 36.5° C., 5% de CO2, 90% humidity and shaken at 320 rpm. Each of the fed-batch culture lasted 14 days. It is well known that experiments in DWP are artificial, although they allow a first screening of culture conditions. In order to confirm that the results obtained in DWP were reproducible at higher scale, similar experiments were also run in TubeSpin® (also called herein shake tubes or ST), with a working volume of 30 mL cell culture (same culture condition than for deepwell plates).
(§3) For TubeSpin® experiments, viable cell density and viability were measured with the ViCell®. Antibody titers were measured using Biacore®.
Rather than supplementing the medium prior to inoculation, it was decided to start the galactose analog addition on day 3, 5 or 7 (respectively β-2F-pGal-d3, β-2F-pGal-d5 and β-2F-pGal-d7; see Table 2). Cell line 1 was used for these experiments. […] The peak cell densities were reached on day 7. No significant difference between the control and the β-2F-pGal-d3 supplemented cultures was observed. They both levelled off at 20.8 and 21.2×10^6 viable cells/mL, respectively. […] Overall, it can be assumed that the presence of β-2F-p-galactose induced limited changes on cell growth until day 7. In the second half of the culture, both the cell density and the viability (FIG. 11B) are correlated with the feed timing. Supplementation on day 3 most strongly impacted the course of the culture. At harvest, the cell density amounted to 9.8×10^6 viable cells/mL (control: 11.8×10^6 viable cells/mL). […] Feed addition on day 5 and 7, respectively, entailed viabilities on day 14 of 78 and 90% (control: 93%). According to FIG. 11C, no clear titer trend came forward. Early supplementation induced a slight titer increase on days 7 and 10, but then reduced productivity at later stages of the culture.

[1] = test system: galactosylation of mAb1 antibody (mAb1 cells); experiment: Glycosylation profile of mAb1 produced in TubeSpin (CGE-LIF); format: cell-based, Chinese hamster
Procedure: (§4) First assays were performed with an antibody produced in a CHO cell line: CHO-S cells expressing IgG1 mAb1, herein “Cells mAb1” or “mAb1 cells”. “mAb1” is a fully human monoclonal antibody directed against a soluble protein. Its isoelectric point (pI) is about 8.20-8.30.
(§5) For examples 1-3: A serum-free chemically defined culture medium was used. It was used as it is, or it was supplemented with α- or β-2-F-peracetyl galactose (herein α- or β-2F-pGal; Biosynth & AX Molecules) at different concentrations (0-200 μM before seeding). The concentrations indicated on FIGS. 1, 2, 3 and 4 are the concentrations in α- or β-2F-pGal in the culture medium at day 0, just before the inoculation. The culture medium was fed, on a regular basis, with a chemically defined feed medium, as well as with glucose in order to keep said glucose level in the range of >0 to about 8 g/L (feeds are done at days 3, 5, 7, 10 and 12).
as §2
(§6) Glycosylation profiles were established by capillary gel electrophoresis with laser-induced fluorescence (CGE-LIF; for DWP and for Shake tubes experiments) or by Ultra Performance Liquid Chromatography-2-amino-benzamide labelling technique (2AB-UPLC; for Shake tubes experiments). Groups of glycans were defined as thereafter in Table 3.

[2] = test system: galactosylation of mAb1 antibody (mAb1 cells); experiment: Glycosylation profile of mAb1 produced in DWP (CGE-LIF); format: cell-based, Chinese hamster
Procedure: as §4, §5, §2, §6
(§7) The cells were cultivated and the results analysed as disclosed in the material and method section. It is noted that the controls (or control conditions) according to the present invention correspond to cells grown without peracetyl galactose.

[3] = test system: mAb1 cells (CHO-S cells expressing IgG1 mAb1); experiment: Fed-batch culture of mAb1 cells in deepwell plates (DWP): viable cell density, viability, titer; format: cell-based, Chinese hamster
Procedure: as §4
(§8) Cells expressing mAb1 were inoculated at 0.3×10^6 cells per millilitre (mL), whereas Cells expressing mAb2 were inoculated at 0.2×10^6 cells per millilitre (mL).
as §5, §2
For DWP experiments, viable cell density and viability were measured with the Guava easyCyte® flow cytometer. Antibody titers were measured with the fortéBIO Octet®.
as §7

[4] = test system: galactosylation of mAb1 antibody (cell line 1); experiment: Glycosylation profile of mAb1, supplementation as feed after the start of the culture (CGE-LIF); format: cell-based, Chinese hamster
Text: as §1, §6

[5] = test system: mAb1 cells (CHO-S cells expressing IgG1 mAb1); experiment: Fed-batch culture of mAb1 cells in TubeSpin (shake tubes): viable cell density, viability, titer; format: cell-based, Chinese hamster; settings: shake tubes
Procedure: as §4, §8, §5, §2, §3

CDC activity = settings: degalactosylated antibody; cited from earlier work

## CC(=O)OC[C@H]1O[C@@H](OC(C)=O)[C@H](F)[C@@H](OC(C)=O)[C@H]1OC(C)=O [β-2F-pGal, α/β-D-galactopyranose, 2-deoxy-2-fluoro-,1,3,4,6-tetraacetate]
mAb1 cells (cell line 1); feed from day 3 (β-2F-pGal-d3)
  cell density at harvest: 9.8 ×106 viable cells/mL
  protein titer (yield of the culture): 2560 mg/L
mAb1 cells (cell line 1); feed from day 3 (β-2F-pGal-d3), second half of culture
  viability: below 60%
mAb1 cells (cell line 1); feed from day 3 (β-2F-pGal-d3: days 3, 5, 7, 10)
  peak cell density (day 7): 21.2 ×106 viable cells/mL
mAb1 cells (cell line 1); feed from day 5 (β-2F-pGal-d5)
  protein titer (yield of the culture): 3215 mg/L
  viability on day 14: 78%
mAb1 cells (cell line 1); feed from day 5 (β-2F-pGal-d5: days 5, 7, 10)
  maximum cell density: 18.6 ×106 viable cells/mL
mAb1 cells (cell line 1); feed from day 7 (β-2F-pGal-d7)
  protein titer (yield of the culture): 2100 mg/L
mAb1 cells (cell line 1); feed from day 7 (β-2F-pGal-d7: days 7, 10)
  viability on day 14: 90%
[1]; 60 μM β anomer, shake tubes, CGE-LIF, unit not given
  total level of galactosylation decreased by (Example 2.2): −5.0
[1]; 60 μM, TubeSpin
  absolute change of galactosylated N-oligosaccharides compared to the control: around 4%
[1]; 60 μM, shake tubes, CGE-LIF, listed as β-2F-peracetyl-galactose
  monogalactosylated form changed by (Example 2.2): −4.7%
[2]; 30 μM
  G1F absolute change compared to the control: 1.1%
  G2F absolute change compared to the control: 0.20%
  absolute change in galactosylated N-oligosaccharide compared to the control: 2.2%
  relative decrease of galactosylated N-oligosaccharides compared to control: 22%
[2]; 30 μM in medium
  galactosylated N-oligosaccharides of the protein: 8.3%
[2]; 60 μM
  G1F absolute change compared to the control: 2.5%
  G2F absolute change compared to the control: 0.30%
  absolute change in galactosylated N-oligosaccharide compared to the control: 4.2%
  relative decrease of galactosylated N-oligosaccharides compared to control: 40%
[2]; 60 μM in medium
  galactosylated N-oligosaccharides of the protein: 6.4%
[2]; 120 μM
  G1F absolute change compared to the control: 3.1%
  G2F absolute change compared to the control: 0.33%
  absolute change in galactosylated N-oligosaccharide compared to the control: 5.4%
  relative decrease of galactosylated N-oligosaccharides compared to control: 52%
[2]; 120 μM in medium
  galactosylated N-oligosaccharides of the protein: 5.1%
[2]; 200 μM
  G1F absolute change compared to the control: 4.4%
  G2F absolute change compared to the control: 0.40%
  absolute change in galactosylated N-oligosaccharide compared to the control: 6.7%
  relative decrease of galactosylated N-oligosaccharides compared to control: 64%
[2]; 200 μM in medium
  galactosylated N-oligosaccharides of the protein: 3.9%
[2]; below 30
  inhibition effect on galactosylation: neither α- or β-2F-pGal does have a significant inhibition effect on galactosylation
[2]; concentrations higher than 30 μM
  inhibition effect on galactosylation: a significant inhibition effect is observed
[3]; concentration higher than 60 μM
  decrease of titers comparing to control: about 1.2 factor
[3]; concentrations between 30 and 60
  impact on protein titre: no impact on protein titre
[3]; concentrations of about 60 μM and higher
  impact on cell growth: negative impact on cell growth
[3]; concentrations up to 30 μM in medium
  impact on cell growth until the end of culture: no impact on cell growth
[3]; media concentration up to 60 μM, day 10 and day 14
  protein titer compared to the control: stays above the protein titer of the control
[3]; media concentrations below 30 μM
  impact on cell density, cell viability and protein titer: do not impact
[4]; feed after the start of the culture
  effects on the other glycan species: remained small
[4]; feed from day 3
  di-galactosylated entity decrease: −0.41
  mono-galactosylated species drop: −8.0%
[4]; feed from day 3 (β-2F-pGal-d3)
  overall galactosylation decrease (absolute change vs control): −8.5%
[4]; feed from day 5
  di-galactosylated entity decrease: −0.33
  mono-galactosylated species drop: −6.7%
[4]; feed from day 5 (β-2F-pGal-d5)
  overall galactosylation decrease (absolute change vs control): −7.0%
[4]; feed from day 7
  di-galactosylated entity decrease: −0.19
  mono-galactosylated species drop: −4.4%
[4]; feed from day 7 (β-2F-pGal-d7)
  overall galactosylation decrease (absolute change vs control): −4.6%
[5]; 60 μM
  peak viable cell density at day 7: 12.8 ×10^6 viable cells/mL
[5]; 60 μM, listed as β-2F-p-galactose
  product titer at the end of the culture (day 14): 2225 mg/L
[5]; between 0 and 90 μM α-2F-p-galactose, 60 μM β-2F-p-galactose
  effect on cell culture performance: No detrimental effect
[5]; α 30-90 μM, β 60 μM, listed as β-2F-p-galactose
  protein titer compared to the control at culture days 5, 7, 10, 12 and 14: comparable to the control

## Rituxan: recombinant IgG whose degalactosylation was studied for CDC (Hodoniczky et al., 2005)
CDC activity
  change of CDC after degalactosylation relative to unmodified control Mab: reduced CDC by approximately half
